Values quoted from earlier work, collected in patent US8017348B1, “Assay for Parkinson's Disease therapeutics” (Elan Pharma International Limited, priority 2005, dated 2011).

What was measured:
Conditions in all cases: at higher concentrations (25-50 uM); cited from earlier work
[1] = tested on: cAMP dependent protein kinase
[2] = target: T1, 3-PI-dependent kinase 1 (Homo sapiens, UniProt O15530)
T1 sequence (O15530 1-556): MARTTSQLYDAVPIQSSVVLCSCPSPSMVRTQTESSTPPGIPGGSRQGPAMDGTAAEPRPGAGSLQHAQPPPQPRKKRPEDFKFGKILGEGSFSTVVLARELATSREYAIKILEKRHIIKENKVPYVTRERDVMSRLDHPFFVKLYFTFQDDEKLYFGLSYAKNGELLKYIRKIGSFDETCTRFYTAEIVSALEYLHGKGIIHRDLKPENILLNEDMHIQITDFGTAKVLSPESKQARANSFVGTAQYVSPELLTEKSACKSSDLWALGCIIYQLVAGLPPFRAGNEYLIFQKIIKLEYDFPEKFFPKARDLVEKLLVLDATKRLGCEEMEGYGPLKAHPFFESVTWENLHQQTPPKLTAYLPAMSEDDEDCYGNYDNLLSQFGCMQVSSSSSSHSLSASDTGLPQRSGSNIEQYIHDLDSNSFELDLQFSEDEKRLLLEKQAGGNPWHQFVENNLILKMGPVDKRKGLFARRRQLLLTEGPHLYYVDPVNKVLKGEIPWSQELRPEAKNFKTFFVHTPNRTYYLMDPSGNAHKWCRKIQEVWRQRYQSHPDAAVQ

[3] = tested on: aldehyde dehydrogenase

Cc1ccc(S(=O)(=O)N[C@@H](Cc2ccccc2)C(=O)CCl)cc1 [TPCK]
inhibit: inhibition of cAMP dependent protein kinase [1] | inhibition of 3-PI-dependent kinase 1 [2] | inhibition of aldehyde dehydrogenase [3]
